{"source": "patent US20240425857A1", "about": "“Means and Methods for Chronic Wound Healing” (VIB VZW, priority 2021, published 2024)", "key": {"dendritic cells (BMDC)": {"system": "dendritic cells (BMDC)", "assay": "Efferocytosis assay: dendritic cells incubated with apoptotic Jurkat cells (flow cytometry or Incucyte live-cell imaging)", "assay_type": "cell-based, mouse", "settings": "apoptotic Jurkat targets; for erastin-dependent increase in efferocytosis by dendritic cells: inhibitor given together with 5 μM erastin; for efferocytosis (apoptotic cell uptake) by dendritic cells: 1:5 phagocyte:target ratio, cells pretreated 1 hour with the substance", "experimental": "(§1) Efferocytosis assays. For induction of apoptosis, human Jurkat T cells were with stained with CypHerSE (#PA15401, GE Healthcare) or TAMRA (#C-1171, Invitrogen) or pHrodo™ Green STP Ester (#P35369, ThermoFisher), resuspended in RPMI with 5% fetal calf serum, treated with 150 mJ/cm^2 ultraviolet C irradiation (Stratalinker) and incubated for 4 h at 37° C. with 5% CO2. Dendritic cells were incubated with apoptotic targets at a 1:5 phagocyte: target ratio for the indicated times. Phagocytosis was assessed by a flow cytometry-based assay^21 or by Incucyte Live-cell imaging. As alternative targets for phagocytosis, dendritic cells were incubated with pHrodo™ Green E. coli BioParticles™ (#P35366, ThermoFisher) or Streptavidin Fluoresbrite® YG Microspheres, 2.0 μm (for simplicity, beads) at a 1:5 phagocyte: target ratio for the indicated times. When applicable, cells were pretreated for 1 hour with 5 μM erastin (#S7242, Bio-Connect B.V), 200 μM CP-91149 (#S2717, Bio-Connect B.V.), 0.2 mM 2-DG (2-Deoxy-D-glucose; #D8375-1G, Sigma), 5 μM UK5099 (#PZ0160, Sigma), 40 μM DON (6-Diazo-5-oxo-L-norleucine; #D2141-5 MG, Sigma), 10 μM 3-BP (3-Bromo-2-oxopropionic acid, #376817-M, Sigma), 10 mM Glutamate (#6106 Apr. 3, Sigma) before addition of targets."}, "db/db mice": {"system": "db/db mice", "assay": "Full-thickness skin wounding, wound healing in diabetic db/db mice", "assay_type": "in vivo, mouse", "settings": "no apoptotic cell co-administration", "description": "(§2) Skin wounding and erastin regimen. Full-thickness wounds were made as previously described^65.56 Briefly, wounds were made on shaved back skin by using 8-mm punch biopsy needles (Stiefel Instruments) under analgesia and general anesthesia in 8-week-old female C57BL/6J, B6.BKS (D)-Leprdb/J (db/db), GDF15KO, Slc7a11KO and control littermates. For wound healing experiments, assuming standard deviations of 10-15%, an experimental group of n=10 is needed to obtain statistical power of 90% (significance level 0.05) and detect a difference between means of 20%, using two-tailed paired T-testing. No animals were excluded from any experiment.\n(§3) For topical applications, mice were intradermally injected with Imidazole ketone erastin (IKE at 20 mg kg^−1 in 100 μl PBS; MedChemExpress, #HY-114481) or recombinant human GDF-15 (0.7 mg kg^−1 in 100 μl PBS; R&D Systems, #9279-GD-050) or RSL3 (20 mg kg-1 in 100 μl PBS; Sellechem, #S8155) or the respective vehicle controls (DMSO or 4 mM HCl in 100 μl PBS) at the time of wounding and for two consecutive days. For the experiments indicated as ‘erastin regimen’ or vehicle regimen, 5 million apoptotic Jurkat cells were administrated once on day 0 in 50 μl PBS on top of back skin immediately after full-thickness excision biopsy. For the mice injected intradermally with supernatants from efferocytic dendritic cells, supernatants from dendritic cells cultured with apoptotic Jurkat cells for 16 h were collected, centrifuged to eliminate debris and frozen or lyophilized for preservation."}, "C57BL/6J mice": {"system": "C57BL/6J mice", "assay": "Full-thickness skin wounding (8-mm punch biopsy), wound healing in wild-type mice", "assay_type": "in vivo, mouse", "description": "as §2\nas §3, with “For the mice injected intradermally with supernatants from efferocytic dendritic cells, supernatants from dendritic cells cultured with apoptotic Jurkat cells for 16 h were collected, centrifuged to eliminate debris and frozen or lyophilized for preservation.” left out"}, "[1]": {"system": "Slc7a11-deficient dendritic cells", "assay": "Efferocytosis by Slc7a11-deficient (Slc7a11 KO) dendritic cells", "assay_type": "cell-based, mouse", "settings": "Slc7a11 KO BMDC, apoptotic Jurkat targets", "experimental": "as §1"}, "dendritic cells [2]": {"system": "dendritic cells", "assay": "Determination of glycogen concentration in dendritic cells", "assay_type": "cell-based, mouse", "settings": "CP-91149 added to erastin-treated BMDC", "experimental": "Determination of glycogen concentration. The glycogen concentration was measured using a Glycogen Colorimetric/Fluorometric Assay Kit (#GENT-K646-10, BioVision) according to the manufacturer's instructions."}, "dendritic cells [3]": {"system": "dendritic cells", "assay_type": "cell-based, mouse", "description": "FIG. 6D, Assessment of erastin drug cytotoxicity in dendritic cells by measuring Sytox Green fluorescence.\nFIG. 9B, Assessment of cytotoxicity of drugs tested on dendritic cells by measuring Sytox Green fluorescence."}}, "note": "“Also recorded” adds a separate entry of the source."}
{"molecule": "[N-]=[N+]=CC(=O)CC[C@H](N)C(=O)O", "note": "[DON, 6-Diazo-5-oxo-L-norleucine]", "values": [{"measurement": "erastin-dependent increase in efferocytosis by dendritic cells", "setting": "dendritic cells (BMDC)", "value": "marginally decreased the erastin-mediated augmented efferocytosis"}]}
{"molecule": "CC(C)Oc1ccc(C(=O)Cn2ccnc2)cc1-n1c(CN2CCN(C(=O)COc3ccc(Cl)cc3)CC2)nc2ccccc2c1=O", "note": "[IKE, Imidazole ketone erastin]", "values": [{"measurement": "diabetic wound healing, substance alone", "setting": "db/db mice", "value": "improves skin wound healing in diabetic mice"}, {"measurement": "wound healing, substance alone", "setting": "C57BL/6J mice; full-thickness wound, no co-treatment", "value": "did not improve wound healing"}]}
{"molecule": "C=C1[C@@H](C)[C@H]2[C@H](Cc3ccccc3)NC(=O)[C@]23[C@H](OC(C)=O)/C=C/[C@@](C)(O)C(=O)[C@@H](C)C/C=C/[C@H]3[C@@H]1O", "note": "[cytochalasin D]", "values": [{"measurement": "efferocytosis by Slc7a11-deficient dendritic cells", "setting": "[1]", "value": "abrogated"}]}
{"molecule": "O=C(O)C(=O)CBr", "note": "[3-BP, 3-Bromo-2-oxopropionic acid]", "values": [{"measurement": "erastin-dependent increase in efferocytosis by dendritic cells", "setting": "dendritic cells (BMDC)", "value": "dampened the enhanced inhibition due to erastin treatment"}]}
{"molecule": "N[C@@H](CCC(=O)O)C(=O)O", "note": "[glutamate]", "values": [{"measurement": "efferocytosis (apoptotic cell uptake) by dendritic cells", "setting": "dendritic cells (BMDC)", "value": "boosted efferocytosis"}]}
{"molecule": "N#C/C(=C\\c1cn(-c2ccccc2)c2ccccc12)C(=O)O", "note": "[UK5099]", "values": [{"measurement": "erastin-dependent increase in efferocytosis by dendritic cells", "setting": "dendritic cells (BMDC)", "value": "had no impact on efferocytosis"}]}
{"molecule": "CN(C)C(=O)[C@H](O)[C@H](Cc1ccccc1)NC(=O)c1cc2cc(Cl)ccc2[nH]1", "note": "[CP-91149]", "values": [{"measurement": "glycogen levels in erastin-treated BMDC", "setting": "dendritic cells [2]", "value": "reversed the glycogen levels in erastin-treated BMDC almost to DMSO control"}, {"measurement": "erastin-dependent increase in efferocytosis by dendritic cells", "setting": "dendritic cells (BMDC)", "value": "strongly abrogated the erastin-dependent increase in efferocytosis"}]}
{"molecule": "O=CC[C@@H](O)[C@H](O)[C@H](O)CO", "note": "[2-DG, 2-Deoxy-D-glucose]", "values": [{"measurement": "erastin-dependent increase in efferocytosis by dendritic cells", "setting": "dendritic cells (BMDC)", "value": "abrogated the enhanced efferocytosis due to Slc7a11 inhibition"}]}
{"molecule": "COC(=O)c1ccc([C@@H]2c3[nH]c4ccccc4c3C[C@@H](C(=O)OC)N2C(=O)CCl)cc1", "note": "[RSL3]", "values": [{"measurement": "wound healing, given with apoptotic cells at day 0", "setting": "C57BL/6J mice; apoptotic Jurkat cells once on day 0, drug from day 0 to day 2", "value": "did not improve wound healing"}]}
{"molecule": "CCOc1ccccc1-n1c(C(C)N2CCN(C(=O)COc3ccc(Cl)cc3)CC2)nc2ccccc2c1=O", "note": "(stereo not drawn) [erastin]", "values": [{"measurement": "dendritic cell viability", "setting": "dendritic cells [3]", "value": "did not affect dendritic cell viability"}]}
{"molecule": "COc1ccc(N(C(=O)CCl)C(C(=O)NCCc2ccccc2)c2cccs2)cc1Cl", "note": "(stereo not drawn) [ML-162]", "values": [{"measurement": "efferocytosis (apoptotic cell uptake) by dendritic cells", "setting": "dendritic cells (BMDC)", "value": "did not enhance efferocytosis; also recorded: does not enhance efferocytosis by dendritic cells"}]}
{"molecule": "rGDF15: recombinant human GDF-15 (R&D Systems), member of the TGF-β superfamily (protein, UniProt Q99988 195-308, looked up) Growth/differentiation factor …: ARARNGDHCPLGPGRCCRLHTVRASLEDLGWADWVLSPREVQVTMCIGACPSQFRAANMHAQIKTSLHRLKPDTVPAPCCVPASYNPMVLIQKTDTGVSLQTYDDLLAKDCHCI", "values": [{"measurement": "diabetic wound healing, substance alone", "setting": "db/db mice", "value": "significantly improved wound healing in the db/db mice"}, {"measurement": "diabetic wound healing, substance alone", "setting": "db/db mice; listed as recombinant GDF15", "value": "boosts healing"}]}
